The values below come from patent US10189836B2, “Therapeutic compounds, compositions and methods of use thereof” (Genentech, Inc., priority 2015, dated 2019).

The target of assay [1] is isolated recombinant JAK2 kinase domain (Homo sapiens (Human), UniProt O60674). In words: JAK2 enzyme assay (Caliper LabChip, Ki). In kind it is biochemical. The settings on record: isolated recombinant JAK2 kinase domain, 0.2 nM enzyme, ATP 25 μM.
The target in assay [2] is isolated recombinant JAK1 kinase domain (Homo sapiens (Human), UniProt P23458). In words: JAK1 enzyme assay (Caliper LabChip, Ki). The assay is classed as biochemical. As to conditions: isolated recombinant JAK1 kinase domain, 1.5 nM enzyme, ATP 25 μM.
Chain of isolated recombinant JAK1 kinase domain (P23458 875-1153): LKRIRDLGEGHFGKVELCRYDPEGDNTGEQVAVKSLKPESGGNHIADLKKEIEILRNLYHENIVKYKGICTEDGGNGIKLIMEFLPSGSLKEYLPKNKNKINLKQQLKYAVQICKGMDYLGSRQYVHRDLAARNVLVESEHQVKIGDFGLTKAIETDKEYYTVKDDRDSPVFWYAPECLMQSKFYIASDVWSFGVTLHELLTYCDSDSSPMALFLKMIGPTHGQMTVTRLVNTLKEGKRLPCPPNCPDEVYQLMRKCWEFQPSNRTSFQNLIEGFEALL

Each structure is given as a SMILES string.

Chain of isolated recombinant JAK2 kinase domain (O60674 849-1124): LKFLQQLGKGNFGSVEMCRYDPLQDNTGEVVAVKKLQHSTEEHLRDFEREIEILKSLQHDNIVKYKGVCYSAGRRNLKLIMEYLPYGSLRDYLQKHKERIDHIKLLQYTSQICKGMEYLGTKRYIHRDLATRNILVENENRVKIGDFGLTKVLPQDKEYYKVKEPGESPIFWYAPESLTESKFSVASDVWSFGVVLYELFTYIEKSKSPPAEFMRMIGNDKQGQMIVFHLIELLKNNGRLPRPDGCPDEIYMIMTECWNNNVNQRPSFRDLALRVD

On to `CN1CCN(C(=O)Cn2cc(Nc3nc4c(N5C[C@H]6CC[C@@H](C5)[C@H]6OCc5ccccc5)cccn4n3)cn2)CC1` [Example 1, 2-[4-[[8-[(1S,5R)-8-benzyloxy-3-azabicyclo[3.2.1]octan-3-yl]-[1,2,4]triazolo[1,5-a]pyridin-2-yl]amino]pyrazol-1-yl]-1-(4-methylpiperazin-1-yl)ethanone], for which the Ki stood at 600 pM in assay [1] and 200 pM in assay [2].
`CN1CCN(C(=O)Cn2cc(Nc3nc4c(N5CC6CCC(C5)N6C(=O)N5CC(C(F)(F)F)C5)cccn4n3)cn2)CC1` [Example 2, 1-(4-methylpiperazin-1-yl)-2-[4-[[8-[8-[3-(trifluoromethyl)azetidine-1-carbonyl]-3,8-diazabicyclo[3.2.1]octan-3-yl]-[1,2,4]triazolo[1,5-a]pyridin-2-yl]amino]pyrazol-1-yl]ethanone]: the Ki in assay [1] was 400 pM; in assay [2] it was 500 pM.
The matching figures for `CN1CCN(C(=O)Cn2cc(Nc3nc4c(N5CC6CCC(C5)N6C(=O)C5CSC5)cccn4n3)cn2)CC1` [Example 3, 1-(4-methylpiperazin-1-yl)-2-[4-[[8-[8-(thietane-3-carbonyl)-3,8-diazabicyclo[3.2.1]octan-3-yl]-[1,2,4]triazolo[1,5-a]pyridin-2-yl]amino]pyrazol-1-yl]ethanone]: 600 pM and 500 pM.
Consider `CN1CCN(C(=O)Cn2cc(Nc3nc4c(N5CC6CCCC(C5)N6C(=O)CCC(F)(F)F)cccn4n3)cn2)CC1` [Example 4, 4,4,4-trifluoro-1-[3-[2-[[1-[2-(4-methylpiperazin-1-yl)-2-oxo-ethyl]pyrazol-4-yl]amino]-[1,2,4]triazolo[1,5-a]pyridin-8-yl]-3,9-diazabicyclo[3.3.1]nonan-9-yl]butan-1-one], for which the results for the Ki in assay [1] and in assay [2] were 800 pM and 500 pM, respectively.
The matching figures for `CN1CCN(C(=O)Cn2cc(Nc3nc4c(N5CC6CCC(C5)N6C(=O)CCC(F)(F)F)cccn4n3)cn2)CC1` [Example 5, 4,4,4-trifluoro-1-[3-[2-[[1-[2-(4-methylpiperazin-1-yl)-2-oxo-ethyl]pyrazol-4-yl]amino]-[1,2,4]triazolo[1,5-a]pyridin-8-yl]-3,8-diazabicyclo[3.2.1]octan-8-yl]butan-1-one]: 1200 pM and 600 pM.
`CN1CCN(C(=O)Cn2cc(Nc3nc4c(C5=CC6CCC(C5)N6C(=O)CCC(F)(F)F)cccn4n3)cn2)CC1` (stereo not drawn) [Example 13, 4,4,4-trifluoro-1-[3-[2-[[1-[2-(4-methylpiperazin-1-yl)-2-oxo-ethyl]pyrazol-4-yl]amino]-[1,2,4]triazolo[1,5-a]pyridin-8-yl]-8-azabicyclo[3.2.1]oct-3-en-8-yl]butan-1-one]: the Ki in assay [2] was 900 pM.
On the same count and under the same terms, the value for `CN1CCN(C(=O)Cn2cc(Nc3nc4c(C5=CC6CCC(C5)N6C(=O)CCC(F)(F)F)cccn4n3)cn2)CC1` (stereo not drawn) [Example 18, 4,4,4-trifluoro-1-[3-[2-[[1-[2-(4-methylpiperazin-1-yl)-2-oxo-ethyl]pyrazol-4-yl]amino]-[1,2,4]triazolo[1,5-a]pyridin-8-yl]-8-azabicyclo[3.2.1]oct-3-en-8-yl]butan-1-one] was 1500 pM; that for `CN1CCN(C(=O)Cn2cc(Nc3nc4c(N5CC6CCC(C5)N6C(=O)C5CC6C(C5)C6(F)F)cccn4n3)cn2)CC1` (stereo not drawn) [Example 57, 2-[4-[[8-[8-(6,6-difluorobicyclo[3.1.0]hexane-3-carbonyl)-3,8-diazabicyclo[3.2.1]octan-3-yl]-[1,2,4]triazolo[1,5-a]pyridin-2-yl]amino]pyrazol-1-yl]-1-(4-methylpiperazin-1-yl)ethanone] was 4800 pM; that for `CN1CCN(C(=O)Cn2cc(Nc3nc4c(N5CC6CCC(C5)N6C(=O)c5ccccc5)cccn4n3)cn2)CC1` [Example 70, 2-[4-[[8-(8-benzoyl-3,8-diazabicyclo[3.2.1]octan-3-yl)-[1,2,4]triazolo[1,5-a]pyridin-2-yl]amino]pyrazol-1-yl]-1-(4-methylpiperazin-1-yl)ethanone] was 4200 pM.
Same read-out and setting: the value for `CN1CCN(C(=O)Cn2cc(Nc3nc4c(N5CC6CCC(C5)N6CCCC(F)(F)F)cccn4n3)cn2)CC1` [Example 73, 1-(4-methylpiperazin-1-yl)-2-[4-[[8-[8-(4,4,4-trifluorobutyl)-3,8-diazabicyclo[3.2.1]octan-3-yl]-[1,2,4]triazolo[1,5-a]pyridin-2-yl]amino]pyrazol-1-yl]ethanone] was 8800 pM.
For the compound `CN1CCN(C(=O)Cn2cc(Nc3nc4c(N5CC6COCC(C5)N6C(=O)CCC(F)(F)F)cccn4n3)cn2)CC1` [Example 130, 4,4,4-trifluoro-1-[7-[2-[[1-[2-(4-methylpiperazin-1-yl)-2-oxo-ethyl]pyrazol-4-yl]amino]-[1,2,4]triazolo[1,5-a]pyridin-8-yl]-3-oxa-7,9-diazabicyclo[3.3.1]nonan-9-yl]butan-1-one], the Ki in assay [1] amounted to 26600 pM.
For `CN1CCN(C(=O)Cn2cc(Nc3nc4c(N5C[C@H]6CC[C@@H](C5)[C@H]6OCc5ccncc5)cccn4n3)cn2)CC1` [Example 144, 1-(4-methylpiperazin-1-yl)-2-[4-[[8-[rac-(1S,5R)-8-(4-pyridylmethoxy)-3 - azabicyclo[3.2.1]octan-3-yl]-[1,2,4]triazolo[1,5-a]pyridin-2-yl]amino]pyrazol-1-yl]ethanone], the Ki in assay [2] turned out to be 800 pM.
Regarding `CN1CCN(C(=O)Cn2cc(Nc3nc4c(N5C[C@H]6CC[C@@H](C5)[C@H]6NCCC(F)(F)F)cccn4n3)cn2)CC1` [Example 145, 1-(4-methylpiperazin-1-yl)-2-(4-((8-((1R,5 S,8r)-8-((3,3,3-trifluoropropyl)amino)-3-azabicyclo[3.2.1]octan-3-yl)-[1,2,4]triazolo[1,5-a]pyridin-2-yl)amino)-1H-pyrazol-1-yl)ethanone], the Ki in assay [2] worked out at 1300 pM.
For `Cc1ccc(CO[C@H]2[C@@H]3CC[C@H]2CN(c2cccn4nc(Nc5cnn(CC(=O)N6CCN(C)CC6)c5)nc24)C3)cn1` [Example 151, 1-(4-methylpiperazin-1-yl)-2-[4-[[8-[rac-(1S,5R)-8-[(6-methyl-3-pyridyl)methoxy]-3-azabicyclo[3.2.1]octan-3-yl]-[1,2,4]triazolo[1,5-a]pyridin-2-yl]amino]pyrazol-1-yl]ethanone], the Ki in assay [2] amounted to 600 pM.
On to `CN1CCN(C(=O)Cn2cc(Nc3nc4c(N5CC6CCC(C5)N6C(=O)C5(C#N)CCCC5)cccn4n3)cn2)CC1` [Example 155, 1-[3-[2-[[1-[2-(4-methylpiperazin-1-yl)-2-oxo-ethyl]pyrazol-4-yl]amino]-[1,2,4]triazolo[1,5-a]pyridin-8-yl]-3,8-diazabicyclo[3.2.1]octane-8-carbonyl]cyclopentane-carbonitrile], for which, in assay [1], the Ki amounted to 21000 pM.
For the compound `CN1CCN(C(=O)Cn2cc(Nc3nc4c(N5C[C@H]6CC[C@@H](C5)[C@@H]6OCc5ccncc5)cccn4n3)cn2)CC1` [Example 189, 1-(4-methylpiperazin-1-yl)-2-(4-((8-((1R,5 S,8s)-8-(pyridin-4-ylmethoxy)-3-azabicyclo[3.2.1]octan-3-yl)-[1,2,4]triazolo[1,5-a]pyridin-2-yl)amino)-1H-pyrazol-1-yl)ethanone], the Ki in assay [2] came out at 500 pM.

The term Ki denotes a dissociation constant, usually derived from enzyme kinetics or from competition with a known ligand.
